Data: PubChem BioAssay AID652265 (Sanford-Burnham Center for Chemical Genomics, 2013)
Active and inactive are the calls of the source.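 How the source made its calls: active means compounds whose half-maximal inhibitory concentration in the worm GFP to RFP ratio test is 5 micromolar or lower; inactive means the rest.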

System: C. elegans VP596 Pgst-4::GFP/RFP ratio, acrylamide, 24 h
Assay: potency of C. elegans SKN-1 blocker analogs – whole organism, GFP/RFP fluorescence ratio, round 2, SAR follow-up (AID 652265)

Structure (SMILES)	IC50
CCOc1cc(CNC2CCCC2)cc(Cl)c1OCc1ccc(Br)cc1	425 nM
Cc1cc(CNC2CCCC2)cc(C)c1OCc1ccc(Cl)cc1	1140 nM
CCOc1cc(CNC2CC2)cc(Cl)c1OCc1ccc(Cl)cc1	512 nM
COc1cc(CNC2CCCC2)cc(F)c1OCc1ccc(Cl)cc1	1220 nM
CCCNCc1cc(Cl)c(OCc2ccc(Cl)cc2)c(OCC)c1	8680 nM (inactive)
CCOc1cc(CN2CCCCC2)cc(Cl)c1OCc1ccc(Cl)cc1	495 nM
CCOc1cc(CN2CCOCC2)cc(Cl)c1OCc1ccc(Cl)cc1	1740 nM
Clc1ccc(COc2c(Cl)cc(CNC3CCCC3)cc2Cl)cc1	928 nM
CCOc1cc(CNC2CCCC2)cc(Cl)c1OCc1ccc(C#N)cc1	400 nM
CCOc1cc(CN2CCCC2)cc(Cl)c1OCc1ccc(Cl)cc1	3960 nM
CCOc1cc(CN2CCOCC2)cc(Cl)c1OCc1ccc(F)cc1	8890 nM (inactive)
CCOc1cc(CN2CCN(C)CC2)cc(Cl)c1OCc1ccc(Cl)cc1	3420 nM
CCOc1cc(CNC2CC2)cc(Cl)c1OCc1ccc(Cl)cc1F	516 nM
CCOc1cc(CN(C)C2CCCC2)cc(Cl)c1OCc1ccc(Cl)cc1	423 nM
CCOc1cc(CNC2CCCC2)cc(Cl)c1OCc1ccc(Cl)cc1F	863 nM
CCOc1cc(CNC2CC2)cc(Cl)c1OCc1ccc(Br)cc1	227 nM
CCOc1cc(CN2CCCC2)cc(Cl)c1OCc1ccc(F)cc1	21400 nM (inactive)
CCOc1cc(CN2CCN(C)CC2)cc(Cl)c1OCc1ccc(F)cc1	6010 nM (inactive)
COc1cc(CNC2CCCC2)cc(Cl)c1OCc1ccc(Cl)cc1	329 nM
C#CCNCc1cc(Cl)c(OCc2ccc(Cl)cc2)c(OCC)c1	8140 nM (inactive)
CCOc1cc(CN(C(C)=O)C2CCCC2)cc(Cl)c1OCc1ccc(Cl)cc1	> 64000 nM (inactive)
CCOc1cc(CNC2CC2)cc(Cl)c1OCc1ccc(C#N)cc1	1560 nM
CCOc1cc(CNCC2CC2)cc(Cl)c1OCc1ccc(Cl)cc1	6730 nM (inactive)
CCOc1cc(CN2CCCCC2)cc(Cl)c1OCc1ccc(F)cc1	432 nM
C=CCNCc1cc(Cl)c(OCc2ccc(Cl)cc2)c(OCC)c1	12300 nM (inactive)
COc1cc(CNC2CCCC2)cc(Br)c1OCc1ccc(Cl)cc1	771 nM
CCOc1cc(CNC)cc(Cl)c1OCc1ccc(Cl)cc1	> 64000 nM (inactive)
